Data as given in patent US20070213301A1 (ACHILLION PHARMACEUTICALS, INC., priority 2006, published 2007).

Test system: HCV replicon
Assay: HCV replicon replication assay (NPTII ELISA)
Type: cell-based, Hepatitis C virus (Huh-7 cells)
Conditions: Hepatitis C virus, Huh-7, 72 h, inhibition of HCV replicon replication in Huh-7 HCV replicon-containing cells, three days incubation, NPT level by ELISA; read-out: EC50
Description: Compounds claimed herein are tested for the ability to inhibit viral replication of the Hepatitis C replicon in cultured cells in which the HCV replicon construct has been incorporated. The HCV replicon system was described by Bartenschlager, et. al (Science, 285, pp. 110-113 (1999)). The replicon system is predictive of in vivo anti-HCV activity; compounds that are active in humans uniformly evidence activity in the replicon assay.
In this assay HCV replicon containing cells are treated with different concentrations of the test compound to ascertain the ability of the test compound to suppress replication of the HCV replicon. As a positive control, HCV replicon-containing cells are treated with different concentrations of interferon alpha, a known inhibitor of HCV replication. The replicon assay system includes Neomycin Phosphotransferase (NPT) as a component of the replicon itself in order to detect the transcription of replicon gene products in the host cell. Cells in which the HCV replicon is actively replicating have high levels of NPT; the level of NPT is proportional to HCV replication. […] The NPT level of each sample is measured using a captured ELISA.
The HCV replicon contains, 5′-3′, the HCV-IRES, the neomycin phosphotransferase (neo) gene, the IRES of encephalomyocarditis virus, which directs translation of HCV sequences NS3 to NS5B, and the 3′-NTR. The sequence of the HCV replicon has been deposited in GenBank (Accession no. AJ242652).
The replicon is transfected into Huh-7 cells using standard methods such as electroporation.
The cells are then seeded onto 96-well plates at a density of 6000-7500 cells/100 microliters/well (6-7.5×10^5 cells/10 ml/plate). The plates are then incubated at 37° C. in a 5% CO2 incubator.
HCV replicon-containing cells are rinsed with once PBS once; 2 mls of trypsin are then added. Cells are incubated at 37° C. in a 5% CO2 incubator for 3-5 minutes. 10 mls of complete medium is added to stop the reaction. Cells are blown gently, put into a 15 ml tube, and spun at 1200 rpm for four minutes. The trypsin/medium solution is removed and 5 mls of medium (500 ml DMEM (high glucose)) from BRL catalog #12430-054; 50 mls 10% FBS, 5% Geneticin G418 (50 mg/ml, BRL catalog #10131-035), 5 ml MEM non-essential amino acids (100× BRL #11140-050) and 5 ml pen-strep (BRL #15140-148) is added. The cells and media are mixed carefully
Cells are plated with screening medium (500 ml DMEM (BRL #21063-029), 50 ml FBS (BRL #10082-147) and 5 ml MEM non-essential amino acid (BRL #11140-050) at 6000-7500 cells/100 μl/well of 96 well plate (6-7.5×10^5 cells/10 ml/plate). Plates are placed into 37° C. 5% CO2 incubator overnight.
The following morning, drugs (test compounds or interferon alpha) are diluted in 96 well U bottom plates with media or DMSO/media, depending on the final concentration chosen for screening. Generally for 6 concentrations of each test compounds ranging from 10 micromolar to 0.03 micromolar are applied. 100 μl of the test compound dilution is placed in wells of the 96 well plate containing the HCV replicon cells. Media without drug is added to some wells as a negative controls. DMSO is known to affect cell growth. Therefore, if drugs diluted in DMSO are used, all wells, including negative control (media only) and positive control (interferon alpha) wells, must contain the same concentration of DMSO, for single dose screening. The plates are incubated at 37° C. in a humidified 5% CO2 environment for three days.
On day four, the NTPII assay is quantitated. The medium is poured from the plates and the plates are washed once in 200 μl of PBS. The PBS is then decanted and the plates tapped in a paper towel to remove any remaining PBS. Cells are fixed in situ with 100 μl/well of pre-cooled (−20° C.) methanol:acetone (1:1) and the plates are placed at −20° C. for 30 minutes.
The fixing solution is poured from the plates and the plates allowed to air-dry completely (approximately one hour). […]

| SMILES | EC50 [nM] |
| --- | --- |
| CCCCCOc1ccc(N(C)c2nc(C(=O)O)cs2)cc1C(F)(F)F [Compound 3, 2-(methyl(4-(pentyloxy)-3-(trifluoromethyl)phenyl)amino)thiazole-4-carboxylic acid] | > 10000 |
| CCCCCCOc1ccc(N(C(N)=O)c2nc(-c3ccc(F)c(F)c3)cs2)cc1 [Compound 124, 1-(4-(3,4-difluorophenyl)thiazol-2-yl)-1-(4-(hexyloxy)phenyl)urea] | < 1000 |
| CCCCCCCCc1ccc(N(C(=O)OCC[N+](C)(C)C)c2nc(-c3cccnc3)c(F)s2)cc1C(F)(F)F [Compound 181] | < 1000 |
| CCCCCOc1ccc(N(C(=O)C(C)OC(C)=O)c2nc(-c3cccnc3)cs2)cc1C(F)(F)F (stereo not shown) [Compound 64, 1-oxo-1-((4-(pentyloxy)-3-(trifluoromethyl)phenyl)(4-(pyridin-3-yl)thiazol-2-yl)amino)propan-2-yl acetate] | < 1000 |
| NC(=O)N(c1ccc(OCC2CCCCC2)c(F)c1)c1nc(-c2cccnc2)cs1 [Compound 119, 1-(4-(cyclohexylmethoxy)-3-fluorophenyl)-1-(4-(pyridin-3-yl)thiazol-2-yl)urea] | < 1000 |
| CCCCCCCCc1ccc(N(C(=O)OCOP(=O)(O)O)c2nc(-c3cccnc3)c(F)s2)cc1C(F)(F)F [Compound 187, phosphonooxymethyl 5-fluoro-4-(pyridin-3-yl)thiazol-2-yl(4-octyl-3-(trifluoromethyl)phenyl)carbamate] | < 1000 |
| CCCCCOc1ccc(N(C(N)=O)c2nc(-c3cccnc3)c(F)s2)cc1C(F)(F)F [Compound 156, 1-(5-fluoro-4-(pyridin-3-yl)thiazol-2-yl)-1-(4-(pentyloxy)-3-(trifluoromethyl)phenyl)urea] | < 1000 |
| COc1ccc(N(C(N)=O)c2nc(-c3ccc(F)cc3)cs2)cc1C(F)(F)F [Compound 85, 1-(4-(4-fluorophenyl)thiazol-2-yl)-1-(4-methoxy-3-(trifluoromethyl)phenyl)urea] | < 1000 |
| CCCCOc1ccc(N(C(N)=O)c2nc(-c3ccc(C)nc3)cs2)cc1C(F)(F)F [Compound 132, 1-(4-butoxy-3-(trifluoromethyl)phenyl)-1-(4-(6-methylpyridin-3-yl)thiazol-2-yl)urea] | < 1000 |
| CCCCCOc1ccc2c(c1)[nH]c(=O)c(=O)n2-c1nc(-c2cccnc2)cs1 [Compound 128, 6-(pentyloxy)-1-(4-(pyridin-3-yl)thiazol-2-yl)quinoxaline-2,3(1H,4H)-dione] | > 10000 |
| CCCCCCCCOc1ccc(N(C(N)=O)c2nc(-c3cccnc3)cs2)cc1C(F)(F)F [Compound 130, 1-(4-(octyloxy)-3-(trifluoromethyl)phenyl)-1-(4-(pyridin-3-yl)thiazol-2-yl)urea] | < 1000 |
| CCCCCCCCOc1ccc(N(C(=O)CN(C)C)c2nc(-c3cccnc3)cs2)cc1C(F)(F)F [Compound 160, 2-(dimethylamino)-N-(4-(octyloxy)-3-(trifluoromethyl)phenyl)-N-(4-(pyridin-3-yl)thiazol-2-yl)acetamide] | < 1000 |
| CCCCCCCCOc1ccc(N(C(N)=O)c2nc(-c3ccc(F)cc3)cs2)cc1 [Compound 61, 1-(4-(4-fluorophenyl)thiazol-2-yl)-1-(4-(octyloxy)phenyl)urea] | 1000 to 10000 |
| CCCCCCCCc1ccc(N(C(=O)OCCOP(=O)(O)O)c2nc(-c3cccnc3)c(F)s2)cc1C(F)(F)F [Compound 183, 2-(phosphonooxy)ethyl 5-fluoro-4-(pyridin-3-yl)thiazol-2-yl(4-octyl-3-(trifluoromethyl)phenyl)carbamate] | < 1000 |
| CCCCCOc1ccc(N(C(N)=O)c2nc(-c3ccc(F)c(F)c3)cs2)cc1F [Compound 113, 1-(4-(3,4-difluorophenyl)thiazol-2-yl)-1-(3-fluoro-4-(pentyloxy)phenyl)urea] | 1000 to 10000 |
| CCCCCOc1ccc(N(C(=O)CC(=O)OC)c2nc(-c3ccc(F)cc3)cs2)cc1F [Compound 42, methyl 3-((3-fluoro-4-(pentyloxy)phenyl)(4-(4-fluorophenyl)thiazol-2-yl)amino)-3-oxopropanoate] | < 1000 |
